From US20220016092A1, “METHODS FOR TREATING SYMPTOMS AND DISORDERS ASSOCIATED WITH LYSOSOMAL STORAGE DISEASES” (GENZYME CORPORATION, priority 2019, published 2022)
Values joined by “and” are separate entries in the source; they are usually repeats but may differ in a detail not shown here. Identical values can stand only once.

Legend:
Assay type in all cases: in vivo, human
[1] = test system: adult patients with Gaucher disease Type 3; assay: Clinical study in GD-3 patients: markers for systemic disease (platelets, spleen volume, hemoglobin); conditions: 15 mg/day + imiglucerase
Procedure: During the study patients were evaluated for safety and tolerability, CSF and plasma biomarkers (glucosylceramide, GL-1; glucosylsphingosine, lyso-GL1), pharmacokinetics, markers for systemic disease (spleen and liver volume measured by magnetic resonance imaging (MRI), platelet count, hemoglobin levels), indicia of interstitial lung disease (high resolution pulmonary computed tomography (CT)), and horizontal saccadic eye movement.
Individual patient data for platelet counts are shown in the table below (shown as 10^9 platelets/L): […]

[2] = test system: GL-3, lyso-GL-3, GL-1 and GM3; assay: Clinical study in Fabry disease patients: plasma and urine glycosphingolipids; conditions: 15 mg/day oral
Procedure: (§1) A three-year open-label investigation of Compound 2 in young classic Fabry disease patients was conducted in order to evaluate the long-term safety, pharmacodynamics and exploratory efficacy of Compound 2 in adult male Fabry patients. Eleven subjects enrolled in the study, and seven subjects completed all aspects of the study. All subjects were males diagnosed with classic Fabry disease confirmed by genotype and residual alpha-galactosidase activity below detection levels (9 of the 11 had nonsense mutation in the GLA gene). All subjects had lyso-GL3 levels in plasma of at least 65 ng/mL and had no prior Fabry disease-specific treatment. The median age of subject was 24 years (range 19-37).
Each sample was scored independently by 3 pathologists for the presence of GL-3 inclusions on a four-point scale, and rated as 0 (no/trace), 1 (mild), 2 (moderate), or 3 (severe) according to Eng et al., N. Engl. J. Med. 345:9-16 (2001). A single score per patient per time point was derived by taking the score rated by the majority of the three pathologists. If a majority score could not be derived, then the median score was used (resulting in some fractional scores). […] Pain scores and abdominal symptoms were analyzed at baseline and weeks 12, 26, 52, 104 and 156 using the SF-36 scoring protocol. […]

[3] = test system: adult male Fabry patients; assay: Clinical study in Fabry disease patients: SF-36 bodily pain and abdominal pain; conditions: 15 mg/day oral
Procedure: as §1
Each sample was scored independently by 3 pathologists for the presence of GL-3 inclusions on a four-point scale, and rated as 0 (no/trace), 1 (mild), 2 (moderate), or 3 (severe) according to Eng et al., N. Engl. J. Med. 345:9-16 (2001). A single score per patient per time point was derived by taking the score rated by the majority of the three pathologists. If a majority score could not be derived, then the median score was used (resulting in some fractional scores). Plasma samples were also analyzed for GL-3, lyso-GL-3, GL-1 and GM3 at baseline and weeks 12, 26, 52 and 156. […]
Patients were assessed using the Short Form-36 (SF-36) questionnaire on numerous visits from baseline to week 156. This is a 36-item questionnaire used to measure 8 various aspects of health (vitality, physical functioning, bodily pain, general health perceptions, physical role functioning, emotional role functioning, social role functioning and mental health). The score for each of the eight aspects ranges from 0 (maximum disability) to 100 (no disability), and thus, higher scores indicate good health condition. In addition, gastrointestinal symptoms, including abdominal pain, abdominal distention, and bowl movements, were assessed using a modified version of the inflammatory bowel severity scoring system. Particular questions asked as part of these assessments included: (1) whether the patient suffered abdominal pain within the last ten days, (2) what was the severity of abdominal pain suffered in the last ten days using a 0 (no pain) to 100 (very severe pain) scale, and (3) on how many days within the last ten days did the patient have abdominal pain.

[4] = test system: adult patients with Gaucher disease Type 3; assay: Clinical study in GD-3 patients: resting-state fMRI connectivity; conditions: 15 mg/day + imiglucerase, individual Patients 1, 3, 4, 5, 6 (Patient 5 likely non-compliant)
Procedure: Neurological function-was further evaluated using functional magnetic resonance imaging (fMRI). Patient 2 was excluded because no fMRI data was collected at the Week 52 session. Resting-state fMRI screening sessions were performed at baseline screening, Week 26, and Week 52 visits. Connectivity estimates from four subjects (Patients 1, 3, 4 and 5) were entered into second-level analyses as a “compliant” group. Patient 5 was isolated due to likely non-compliance with study medication, as described above. Analyses were performed as described elsewhere (Smith et al. [2009]).
Spatial analysis of the connectivity between different anatomic regions of the brain is performed to define a correlation coefficient for regressed voxelwise mean intensity.

Question: What does the source list for `CC(C)(NC(=O)O[C@@H]1CN2CCC1CC2)c1csc(-c2ccc(F)cc2)n1` [Compound 2, (S)-quinuclidin-3-yl 2-(2-(4-fluorophenyl)thiazol-4-yl)propan-2-ylcarbamate]?
Answer: Hemoglobin levels ([1]; 26 weeks): no clinically meaningful changes in hemoglobin levels; Platelet count increase in the three patients with lowest baseline platelet counts ([1]; 26 weeks): 23-42%; Patients with reductions in splenic volume of 10% or more ([1]; 26 weeks (5 patients)): Two; Systemic deterioration ([1]; 26 weeks, all patients): absence of systemic deterioration; Platelet count ([1]; Week 4, individual Patients 1-5): 203 10^9 platelets/L and 243 10^9 platelets/L and 247 10^9 platelets/L and 239 10^9 platelets/L and 154 10^9 platelets/L; Platelet count ([1]; Week 12, individual Patients 1-5): 214 10^9 platelets/L and 294 10^9 platelets/L and 264 10^9 platelets/L and 314 10^9 platelets/L and 180 10^9 platelets/L; Platelet count ([1]; Week 26, individual Patients 1-5): 264 10^9 platelets/L and 236 10^9 platelets/L and 248 10^9 platelets/L and 267 10^9 platelets/L and 173 10^9 platelets/L; Hemoglobin levels ([1]; Week 52): no clinically meaningful changes in hemoglobin levels; Platelet count maintained by all patients ([1]; Week 52): greater than 120 ×10^9/L; Patients with spleen volume reductions ([1]; Week 52 (six patients)): two; Mean platelet concentration increase ([1]; Week 52, range −8.2% to +45.3%): 9.3%; Platelet count, % Change from baseline to 26 weeks ([1]; individual Patients 1-5): +42% and +23% and −4.3% and −13% and +36%; Platelet counts, average rise from baseline ([1]; week 26): 17%; Urine GL-3 (mg per mmol urine creatinine), change from baseline ([2]; 26 weeks (n = 8)): -0.25 mg/mmol; Plasma GL-1, change from baseline ([2]; 26 weeks (n = 9)): -3.26 µg/mL; Plasma GL-3, change from baseline ([2]; 26 weeks (n = 9)): -3.62 µg/mL; Plasma GM3, change from baseline ([2]; 26 weeks (n = 9)): -10.77 µg/mL; Plasma lyso-GL-3, change from baseline ([2]; 26 weeks (n = 9)): -30.99 ng/mL; Plasma GL-1, change from baseline ([2]; 52 weeks (n = 7)): -3.58 µg/mL; Plasma GL-3, change from baseline ([2]; 52 weeks (n = 7)): -5.06 µg/mL; Plasma GM3, change from baseline ([2]; 52 weeks (n = 7)): -8.84 µg/mL; Plasma lyso-GL-3, change from baseline ([2]; 52 weeks (n = 7)): -37.10 ng/mL; Urine GL-3 (mg per mmol urine creatinine), change from baseline ([2]; 52 weeks (n = 7)): -0.20 mg/mmol; Plasma GL-1, change from baseline ([2]; 104 weeks (n = 7)): -3.70 µg/mL; Plasma GL-3, change from baseline ([2]; 104 weeks (n = 7)): -6.32 µg/mL; Plasma GM3, change from baseline ([2]; 104 weeks (n = 7)): -9.92 µg/mL; Plasma lyso-GL-3, change from baseline ([2]; 104 weeks (n = 7)): -39.84 ng/mL; Urine GL-3 (mg per mmol urine creatinine), change from baseline ([2]; 104 weeks (n = 7)): -0.18 mg/mmol; Plasma GL-1, change from baseline ([2]; 156 weeks (n = 7)): -3.23 µg/mL; Plasma GL-3, change from baseline ([2]; 156 weeks (n = 7)): -6.97 µg/mL; Plasma GM3, change from baseline ([2]; 156 weeks (n = 7)): -8.12 µg/mL; Plasma lyso-GL-3, change from baseline ([2]; 156 weeks (n = 7)): -48.13 ng/mL; Urine GL-3 (mg per mmol urine creatinine), change from baseline ([2]; 156 weeks (n = 7)): -0.18 mg/mmol; Plasma GL-3 levels ([2]; after 156 weeks): 1.90 µg/mL; Plasma GL-3 reduction compared to agalsidase beta ([2]; at 104 weeks (p=0.0351) and 156 weeks (p=0.0081)): significantly greater; Drop in mean plasma GL-1 levels ([2]; over the 156-week study): 69%; Drop in mean plasma GL-3 levels ([2]; over the 156-week study): 77%; Drop in mean plasma GM3 levels ([2]; over the 156-week study): 60%; Drop in mean plasma lyso-GL3 levels ([2]; over the 156-week study): 52%; Number of Patients Reporting Yes to Abdominal Pain in 10-Days Preceding Visit ([3]; 4 weeks): 4/11; Abdominal Pain Severity Score in 10-Days Preceding Visit (mean value, 0-100 scale) ([3]; 4 weeks (n = 4)): 29.75; Number of Days within Preceding 10 Days with Abdominal Pain (mean value) ([3]; 4 weeks (n = 4)): 2.50; Number of Patients Reporting Yes to Abdominal Pain in 10-Days Preceding Visit ([3]; 12 weeks): 2/10; Abdominal Pain Severity Score in 10-Days Preceding Visit (mean value, 0-100 scale) ([3]; 12 weeks (n = 2)): 40.00; Number of Days within Preceding 10 Days with Abdominal Pain (mean value) ([3]; 12 weeks (n = 2)): 3.50; Number of Patients Reporting Yes to Abdominal Pain in 10-Days Preceding Visit ([3]; 26 weeks): 3/9; Abdominal Pain Severity Score in 10-Days Preceding Visit (mean value, 0-100 scale) ([3]; 26 weeks (n = 3)): 31.33; Number of Days within Preceding 10 Days with Abdominal Pain (mean value) ([3]; 26 weeks (n = 3)): 3.00; Number of Patients Reporting Yes to Abdominal Pain in 10-Days Preceding Visit ([3]; 52 weeks): 2/7; Abdominal Pain Severity Score in 10-Days Preceding Visit (mean value, 0-100 scale) ([3]; 52 weeks (n = 1)): 21.00; Number of Days within Preceding 10 Days with Abdominal Pain (mean value) ([3]; 52 weeks (n = 3)): 0.70; Number of Patients Reporting Yes to Abdominal Pain in 10-Days Preceding Visit ([3]; 104 weeks): 2/7; Abdominal Pain Severity Score in 10-Days Preceding Visit (mean value, 0-100 scale) ([3]; 104 weeks (n = 1)): 21.00; Number of Patients Reporting Yes to Abdominal Pain in 10-Days Preceding Visit ([3]; 156 weeks): 2/7; Abdominal Pain Severity Score in 10-Days Preceding Visit (mean value, 0-100 scale) ([3]; 156 weeks (n = 2)): 15.00; Number of Days within Preceding 10 Days with Abdominal Pain (mean value) ([3]; 156 weeks (n = 2)): 0.20; Patients with decreased severity of abdominal pain, among those with gastrointestinal pain at baseline ([3]; week 26): four out of five; Patients with improved overall bodily pain scores (SF-36) ([3]; week 26): Seven of nine; Patients with reduced number of days with gastrointestinal pain ([3]; week 26): five of five; Patients with decreased severity of abdominal pain, among those with gastrointestinal pain at baseline ([3]; week 156): four out of four; Patients with improved overall bodily pain scores (SF-36) ([3]; week 156): three of six; Patients with reduced number of days with gastrointestinal pain ([3]; week 156): three of four; Change in Correlation Coefficient (connectivity default mode network - executive function network) [4]: +0.20 (3×) and −0.13 and +0.70
